How the values were obtained:
Akt phosphorylation [1] = test: Immunoblotting of Akt phosphorylation in C2 myoblast whole cell lysates; type: cell-based, mouse; details: different concentrations of IGF-I, C2 myoblasts
Description: (§1) Whole cell protein lysates were prepared as described (Mukherjee A and Rotwein P, Mol Endorcrinol 22, 1238-1250 (2008); incorporated by reference herein). Protein aliquots (15 μg/lane) were resolved by SDS-PAGE (12% separating gel), followed by transfer to Immobilon-FL membranes, and blocking with 50% AquaBlock solution. Membranes were incubated sequentially with primary and secondary antibodies, as described (Mukherjee and Rotwein, 2008 supra). Primary antibodies were incubated for 12-16 hr at a 1:1000 dilution, except for α-tubulin (1:10,000), and secondary antibodies for 90 min at 1:5000. Images were captured using the LiCoR Odyssey and version 3.0 analysis software (Lincoln, Nebr.).

Akt [2] = test: FOXO1-clover reporter live-cell imaging in C2 myoblasts; type: cell-based, mouse; details: different concentrations of R3-IGF-I, 60 min
Description: C3H10T1/2 mouse embryonic fibroblasts (ATCC #CCL226) were incubated in DMEM supplemented with 10% FBS. Mouse C2 myoblasts (Yaffe and Saxel, 1977) were grown in DMEM supplemented with 10% FBS and 10% newborn calf serum. Cells were transduced at 50% of confluent density with concentrated virus in the presence of 6 μg/ml polybrene, as described (Mukherjee A et al, Mol Cell Biol 30, 1018-1027 (2010); incorporated by reference herein). Cells were then selected by incubation with puromycin (2 μg/ml) for one week. Surviving cells were sorted by fluorescence intensity using a Becton-Dickinson Influx cell sorter at the OHSU Flow Cytometry Core Facility. Reporter expression was stable for at least 10 passages in each sorted cell population.
10T1/2 cells and C2 myoblasts were incubated in serum-free medium for 90 min. R3-IGF-I was added in supplemented FluoroBrite [0 to 500 pM], and cells were imaged every 2-min for 60 min.

Akt phosphorylation [3] = test: Immunoblotting of Akt and PRAS40 phosphorylation in 10T1/2 whole cell lysates; type: cell-based, mouse
Description: (§2) Cells were imaged every 2-min for 60 min. At the end of the incubation period whole cell lysates were collected.
as §1
C3H10T1/2 cells stably expressing FoxO1-clover were incubated in SFM with Fluorobrite imaging media for 90 min followed by addition of insulin [1400 pM], EGF [4.2 nM], PDGF-AA [1400 pM], or PDGF BB [104 pM]. Whole protein lysates were collected after 0, 5, 15, 30, 60, and 90 min of growth factor exposure by washing cells twice with cold PBS and addition of RIPA buffer containing protease and phosphatase inhibitors (Mukherjee A and Rotwein P, Mol Endocrinol 22, 1238-1250 (2008); incorporated by reference herein). Protein aliquots (12.5 μg/lane) were resolved by SDS PAGE (10% separating gels), and transferred onto Immobilon-FL membranes. Membranes were incubated in 50% AquaBlock for 60 min, followed by addition of primary antibodies at 1:1000 dilution for 16 hr, and secondary antibodies for 90 min at 1:5000. Images were collected using the LiCoR Odyssey and analysis software version 3.0 (Lincoln, Nebr.).

Akt [4] = test: FOXO1-clover reporter live-cell imaging (relative nuclear intensity) in C3H10T1/2 fibroblasts; type: cell-based, mouse; details: for change of nuclear levels of the reporter on growth factor addition (result in words): different concentrations; for change of nuclear levels of the reporter on growth factor addition (result in words) / time to half-maximal translocation/accumulation of reporter in the cytoplasm after onset of incubation / time to maximal translocation values: cells pre-incubated in SFM, population level; for time to half-maximal translocation/accumulation of reporter in the cytoplasm after onset of incubation / time to maximal translocation values: different growth factor concentrations
Description: as §2
10T1/2 cells and C2 myoblasts were incubated in serum-free medium for 90 min. R3-IGF-I was added in supplemented FluoroBrite [0 to 500 pM], and cells were imaged every 2-min for 60 min. […]
(§3) Live cell imaging was performed using an EVOS FL Auto microscope with a stage top incubator that was maintained at 37° C. and 95% humidified air with 5% CO2. Images were collected at 100× magnification at different intervals, using a 10× Fluorite objective (numerical aperture: 0.3), and a GFP light cube (excitation peak, 472/22 nm; emission peak, 510/42 nm). Images were analyzed with the NIH ImageJ plug-in Fiji (NIH, Bethesda, Md.), after using the Polynomial Fit plug-in to subtract background fluorescence, the Stack Reg (rigid registration) plug-in to register images, and the Gaussian Blur plug-in (at 2-pixels) to average fluorescence across pixels. Individual cells were manually tracked using the mTrackJ plug-in (Meijering E et al, Methods Enzymol 504, 183-200 (2012); incorporated by reference herein) by selecting a single point in the nucleus. Cells that died, divided, or migrated out of frame were excluded from analysis. In experiments performed in 6-well dishes, two locations on opposite sides of the well were imaged, while for studies using 24-well plates, one central location was imaged. In each location, at least 25 cells were tracked.

Akt [5] = test: FoxO1-clover reporter live-cell imaging in HeLa cells; type: cell-based; details: IGF-I 500 pM, insulin 1400 pM, EGF 4.2 nM, PDGF-BB 4.1 nM, PDGF-AA 3.5 nM; 90 min
Description: HeLa cells (ATCC #CCL2) were incubated in DMEM supplemented with 10% FBS. Cells were transduced at 50% of confluent density with concentrated FoxO1-clover virus in the presence of polybrene (6 μg/ml), as described (Gross S M and Rotwein P, Skelet Muscle 3, doi10.1186/2044-5040-3-10 (2013); incorporated by reference herein), and sorted by fluorescence intensity with a Becton-Dickinson Influx cell sorter. Reporter expression was stable for at least 10 passages in each sorted cell population. C3H10T1/2 mouse embryonic fibroblasts (ATC #CCL226) stably expressing FoxO1-clover (Gross and Rotwein, 2015), were maintained under selection with puromycin (2 μg/ml).
as §3, with “tracked. The relative nuclear intensity of the FoxO1-clover reporter protein was calculated in each cell by normalizing the values measured at time 0 to 100%. This corresponded to incubation in serum-free medium (SFM). In graphs in which single cell responses were plotted with C3H10T1/2 cells, we applied a time-weighted smoothing filter to each data point. This consisted of averaging contributions from the two prior and two succeeding times (adding 50% of the prior or succeeding time point, and 25% of the next succeeding or earlier time point to 100% of the value of the time point in question, and then dividing by 2.5).” for “tracked.”
Short-term responses to individual growth factors: C3H10T1/2 cells were incubated in serum-free Fluorobrite medium plus 2 mM L-glutamine and 0.1% bovine serum albumin for 90 min. Different concentrations of growth factors were added and images were collected every 2 min for 90 min. Growth factors included insulin [0 to 1400 pM], EGF [0 to 4.2 nM], PDGF-AA [0 to 1400 pM], or PDGF-BB [0 to 104 pM]. HeLa cells were incubated in serum-free Fluorobrite medium for 120 min and then incubated with insulin [1400 pM], EGF [4.2 nM], PDGF-AA [3.5 nM], PDGF-BB [4.1 nM], or R3-486 IGF-I [500 pM], with images collected every 2 min.

IGF-I receptor = IGF-I receptor (Homo sapiens, UniProt P08069); details: cited from earlier work
IGF-I receptor, sequence (P08069 31-736 limits assumed, species assumed): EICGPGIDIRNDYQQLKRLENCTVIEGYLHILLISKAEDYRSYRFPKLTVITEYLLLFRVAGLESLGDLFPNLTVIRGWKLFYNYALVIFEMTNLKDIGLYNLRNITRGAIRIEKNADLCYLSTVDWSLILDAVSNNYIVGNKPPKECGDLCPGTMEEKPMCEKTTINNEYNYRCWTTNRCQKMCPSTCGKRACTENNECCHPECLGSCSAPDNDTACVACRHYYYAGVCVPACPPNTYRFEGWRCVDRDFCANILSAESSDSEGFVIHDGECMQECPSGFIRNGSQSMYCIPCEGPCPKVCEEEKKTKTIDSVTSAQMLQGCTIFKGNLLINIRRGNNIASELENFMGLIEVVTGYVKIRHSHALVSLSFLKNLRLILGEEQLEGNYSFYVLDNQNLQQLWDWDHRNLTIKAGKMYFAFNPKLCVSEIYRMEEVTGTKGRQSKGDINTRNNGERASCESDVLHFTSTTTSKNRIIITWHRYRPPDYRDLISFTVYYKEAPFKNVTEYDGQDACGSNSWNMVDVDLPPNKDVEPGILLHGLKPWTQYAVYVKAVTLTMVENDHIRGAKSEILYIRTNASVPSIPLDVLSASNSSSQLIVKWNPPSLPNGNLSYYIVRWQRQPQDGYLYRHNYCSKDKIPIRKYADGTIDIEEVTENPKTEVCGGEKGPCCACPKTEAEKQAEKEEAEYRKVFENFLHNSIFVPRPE
IGF-I receptor, sequence (P08069 741-1367 partner limits assumed, species assumed): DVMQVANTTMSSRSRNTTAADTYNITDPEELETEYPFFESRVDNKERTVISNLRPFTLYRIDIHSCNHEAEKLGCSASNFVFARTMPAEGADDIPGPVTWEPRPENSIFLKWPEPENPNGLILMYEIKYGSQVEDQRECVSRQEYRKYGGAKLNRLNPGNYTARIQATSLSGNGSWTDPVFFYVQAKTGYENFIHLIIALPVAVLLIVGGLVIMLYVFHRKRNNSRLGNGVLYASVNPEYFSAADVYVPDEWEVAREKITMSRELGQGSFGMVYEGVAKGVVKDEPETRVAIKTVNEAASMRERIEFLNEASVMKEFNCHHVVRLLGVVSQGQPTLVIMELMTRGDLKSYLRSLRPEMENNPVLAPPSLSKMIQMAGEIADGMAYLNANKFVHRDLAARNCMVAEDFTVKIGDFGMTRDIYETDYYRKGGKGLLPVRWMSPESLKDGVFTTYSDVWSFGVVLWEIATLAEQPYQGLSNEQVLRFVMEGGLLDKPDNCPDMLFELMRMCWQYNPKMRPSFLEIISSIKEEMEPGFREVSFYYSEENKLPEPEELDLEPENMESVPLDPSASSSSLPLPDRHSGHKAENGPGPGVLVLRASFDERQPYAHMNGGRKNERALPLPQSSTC

Substance	extent of Akt phosphorylation (immunoblot) (Akt phosphorylation [1])	reporter response in C2 myoblasts compared with 10T1/2 cells (Akt [2])	Akt phosphorylation (pAkt T308 immunoblot) (Akt phosphorylation [3]; 60 min, 10% FBS, PDGF-BB 206 pM, R3-IGF-I 1 nM, BMP-2 15 nM)	extent of Akt phosphorylation (immunoblot) (Akt phosphorylation [3]; different concentrations of IGF-I, 10T1/2 cells)	response to IGF-I after prior EGF (Akt [4]; EGF 4.2 nM for 60 min, then IGF-I 500 pM)	change of nuclear levels of the reporter on growth factor addition (result in words) (Akt [4])	time to half-maximal translocation/accumulation of reporter in the cytoplasm after onset of incubation (Akt [4]) [min]	time to maximal translocation values (Akt [4]) [min]	response to a second treatment with the same growth factor (Akt [4]; sequential exposures, IGF-I 50 or 500 pM with 90-min washout, EGF 4.2 nM after 60 min EGF)	subcellular localization of FOXO1-clover (result in words) (Akt [4]; serum-starved cells, 60 min, 10% FBS, PDGF-BB 206 pM, R3-IGF-I 1 nM, BMP-2 15 nM)	signaling response in HeLa FoxO1-clover cells (result in words) (Akt [5])	affinity for IGF-I receptor relative to insulin receptor (fold less) (IGF-I receptor) [fold]	time at which phosphorylation of Akt and PRAS40 was detected (Akt phosphorylation [3]; insulin 1400 pM) [min]	time course of Akt and PRAS40 phosphorylation (result in words) (Akt phosphorylation [3]; insulin 1400 pM, EGF 4.2 nM, PDGF-AA 1400 pM, PDGF-BB 104 pM, up to 90 min)
R3-IGF-I: growth factor purchased from GroPep; binds minimally to IGF binding proteins; activates Akt	dose-dependent increase in the extent of Akt phosphorylation	marked increase in sensitivity to IGF-I	stimulation of Akt phosphorylation	dose-dependent increase in the extent of Akt phosphorylation	rapid, extensive, and sustained signaling response	rapid and dose-dependent reduction in nuclear levels of the reporter	8 to 10	14 to 16	qualitatively similar population responses to each dose	rapid and sustained translocation of the reporter from the nucleus to the cytoplasm	sustained signaling effects			
insulin: recombinant human insulin (Tocris Bioscience)						rapid, dose-dependent, and sustained decrease in nuclear levels of FoxO1-clover	8 to 15	~20			sustained signaling effects	~1000	≤ 5	rapid and sustained
